Measured values from PMC4837341, “Drug target identification using network analysis: Taking active components in Sini decoction as an example” (Scientific Reports, 2016).

Molecular target: T1, TNF-α (recombinant mouse TNF-α) (Mus musculus, UniProt P06804)
T1 construct: recombinant, purchased from Sigma; amine-coupled to CM5 chip
T1 sequence (P06804 80-235): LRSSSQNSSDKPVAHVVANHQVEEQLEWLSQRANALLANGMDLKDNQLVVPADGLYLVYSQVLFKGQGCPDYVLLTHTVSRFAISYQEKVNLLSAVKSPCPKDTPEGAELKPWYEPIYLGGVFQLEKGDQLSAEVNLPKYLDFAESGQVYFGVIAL
Assay: SPR (BIAcore T200, TNF-α immobilised on CM5, […] model)
Assay type: binding

| SMILES | Kd |
| --- | --- |
| O=c1c(O)c(-c2ccc(O)c(O)c2)oc2cc(O)cc(O)c12 [H11, Quercetin] | 35 µM |
| Oc1ccc(CC2NCCc3cc(O)c(O)cc32)cc1 (centres unmarked) [S39, Higenamine] | 67 µM |
